# Experimental data as given in patent publication US12084422B2, “Phenyl-n-quinoline derivatives for treating a RNA virus infection” (ABIVAX, priority 2018, dated 2024).
# How the values were obtained:
# [1] = tested on: Chikungunya Virus (CHIKV) strain LR2006-OPY1 with GFP modification (CHIK 5'LR); test: Inhibition of Chikungunya virus (CHIKV) production in infected HEK293T cell line (GFP fluorescence); assay type: cell-based; settings: HEK-293T, infected HEK293T cells; for inhibition at 1 µM: compounds at 1 μM, MOI 0.1, 22 h, values above 100 lowered to 100, read-out: % CHIKV Inhibition Mean (n = 2); for IC50: second round of experiments
# Procedure: The ability of the compounds to inhibit viral replication was assessed with an experiment in which infected cells were treated by compounds of formula (I) at 1 μM. As a positive control for inhibition of Chikungunya, Ribavirin was used. Toxicity of the compounds was assessed in parallel.
# Human embryonic kidney cells 293T (HEK293T, CRL-11268) were maintained in Dulbecco's modified Eagle's Medium (DMEM, 31966-021, Thermo Fisher Scientific) supplemented with 10% of fetal bovine serum (FBS), penicillin and streptomycin. After removal of the medium, cells were washed with a Ca^2+- and Mg^2+-free salt solution to remove all traces of serum. After aspiration of wash solution, cells were dissociated with 0.25% Trypsin-EDTA solution and incubated 30 s at least in 37° ° C. incubator. Concentration of cell suspension was determined by an automatic cell counter (EVE, NanoEntek) and, if needed, adjusted to 0.33×10^6 cells/mL with DMEM medium supplemented with 10% FBS.
# 100 μL of the cell suspension were dispatched in a ViewPlate-96 Black (6005182, PerkinElmer) and in a transparent 96-well cell culture plate (655180, Greiner bio-one). After an incubation for 24 h at 37° C. under 5% of CO2, compounds were added at the proper concentration.
# An intermediate dilution was prepared with DMSO (D8418, Sigma) at 2 mM in a 96-well V-bottom microplate from the stock solution:
# Mix 1 μL of the 50 mM stock library in 25 μL of DMSO.
# Mix 2 μL of the 25 mM stock library in 25 μL of DMSO.
# An intermediate dilution was prepared with DMSO (D8418, Sigma) at 25 mM in a 96-well V-bottom microplate from the stock solution:
# Mix 2 μL of the 50 mM stock library in 2 μL of DMSO.
# Serial dilutions were performed in 2 μL of DMSO 13 times to reach 0.0015 mM as follows in table III:
# For both screen and determination of IC50 1 μL of each solution was added in a 1 mL Masterblock 96 wells (Greiner bio-one, 780261) containing 1 mL of DMEM medium. As a positive control, 5 μL of a 80 mM Ribavirin solution (R9644, Sigma) is added to 1 mL of DMEM. On the other hand, DMSO is used as a negative control.
# […]. Vector Borne Zoonotic Dis. 2006; 6(4)). This modified virus was used to infect cells at MOI 0.1. […].
# Medium was removed after 22 h at 37° ° C. under 5% of CO2 and cells were washed as described above. 60 μL of RIPA buffer (50 mM Tris-HCl pH8, 100 mM NaCl, 1 mM MgCl2, 1% Triton X-100) was added to cells and incubated for at least 20 min before reading fluorescence signal. Pierce 660 nm Protein Assay Reagent (22660, Thermo scientific) was used to normalize fluorescence signal by protein quantity.
# A first round of experiments has been performed wherein the results are expressed as inhibition percentage, which is calculated as follows, through the following steps:
# 1. Fluorescence intensity (FI) 509 nm/Absorbance 660 nm (A660)=A
# This ratio allows considering the infection (GFP virus) to the protein amount.
# 2. A′=A—background noise of non-infected plate,
# 3. B=Fluorescence intensity (FI)/Absorbance 660 nm (A660) of infected but non treated plates,
# 4. C=A′/B which is then converted as the percentage of infection after treatment, compared to non-treated sample, and subsequently as the […]. For instance, a value of 100 in Table IV here below means that, after treatment, the signal attributed to GFP fluorescence is abolished, which is correlated to the absence of infection.
# This value corresponds to the inhibition's percentage.
# The following Table IV encompasses said C′ value for some compounds as calculated above with a mean of 2 experiments, and the corresponding standard deviation.
# Some values were originally above 100. In these cases, the value has been lowered to 100. This means that some molecules also have an impact on the viability of the cells. In other words, the A value may be lower than the background noise.
# Moreover, for each measure, the test was performed with Ribavirin as control. The value of the inhibition percentage was checked, giving 100%.
# RSV A2 = test: Screening for RSV inhibition using Viral ToxGlo assay in HEp-2 cells; assay type: cell-based; settings: human respiratory syncytial virus, HEp-2, 72 h
# Procedure: Protocol for Screening Antiviral Compounds for RSV Inhibition and Cytotoxicity Using Viral ToxGlo Assay
# HEp-2 cells were maintained in Eagle's minimum essential medium (EMEM) with Earle's BSS adjusted to contain 2 mM L-glutamine, 10% fetal bovine serum, 100 U/ml penicillin and 100 μg/ml streptomycin. For the purposes of the screening assay they were grown to 90% confluency, trypsinized and recovered. The trypsin was neutralised with cell culture media and cells were centrifuged at 150×g for 5 minutes before discarding the supernatant and resuspending cell pellet in assay media (EMEM with Earle's BSS adjusted to contain 2 mM L-glutamine, 2% fetal bovine serum and 100 U/ml penicillin and 100 μg/ml streptomycin). The cells were seeded into white clear-bottomed cell culture plates at a density of 1.5×10^4 cells/well in 50 μl and 4×10^3 cells/well in 25 μl for 96 well plates and 384 well plates respectively. For the media/background control column assay media only was added. Cell plates were placed in a humid chamber and incubated overnight at 37° C./5% CO2. After overnight incubation cells were checked for confluency and healthy appearance.
# Test articles were made up at 10× test concentration in a maximum DMSO concentration of 10% (final assay concentration maximal 1% DMSO) and added to the cell plates in volumes of 10 μl for 96 well plates and 5 μl for 384 well plates. For cell control and virus control wells the test article solvent only was added. Virus or assay media for cytotoxicity test wells and media/cell control wells was added immediately after test articles at an MOI of 0.5, 40 or 20 μl for 96 and 384 well plates respectively. Virus suspension was prepared by thawing RSV A2 frozen stocks and diluting to the required concentration of plaque forming units in assay media on ice.
# (§1) Cell plates were further incubated inside a humid chamber for 72 h p.i at 37° C./5% CO2. After the incubation period cells were observed under the microscope to check for characteristic cytopathic effect in virus control wells and healthy cells in the cell control wells. After plates were adjusted to room temperature 20/40 μl Viral ToxGlo (Promega) was added to each well of the 384/96 well cell plates. Plates were incubated at room temperature, protected from light on a plate rocker for 20 minutes before measuring the luminescence on a spectrophotometer (Biotek Synergy HTX).
# RSV inhibition was calculated as percentage of cytopathic effect inhibition relative to the virus control and cytotoxicity as percentage of cell survival relative to cell control wells. This allowed EC50 values to be calculated for each test article where a virus inhibition or cytotoxic dose response was identified. EC50 values ranging between 0.001 µM and 5 μM could thus be determined for compounds 1, 6, 10, 13, 28, 38, 43, 47, 48, 49, 50, 51, 52, 53, 54, 55, 56 and 57.
# DENV-2 strain 16681 = test: Screening for DENV-2 inhibition using Viral ToxGlo assay in A549 cells; assay type: cell-based, Dengue 2 virus; settings: Dengue virus, DENV2, A549, 120 h, read-out: % DENV-2 Inhibition Mean (n = 3)
# Procedure: Protocol for Screening Antiviral Compounds for DENV-2 Inhibition and Cytotoxicity Using Viral ToxGlo Assay
# A549 cells were maintained in Dulbecco's Modified Eagle Medium (DMEM) supplemented with 10% fetal bovine serum, 100 U/ml penicillin and 100 μg/ml streptomycin. For the purposes of the screening assay they were grown to 90% confluency, trypsinized and recovered. The trypsin was neutralised with cell culture media and cells were centrifuged at 150×g for 5 minutes before discarding the supernatant and resuspending cell pellet in assay media (DMEM supplemented with 2% fetal bovine serum and 100 U/ml penicillin and 100 μg/ml streptomycin). The cells were seeded into 96-well white clear-bottomed cell culture plates at a density of 1.0×10^4 cells/well in 50 μl. For the media/background control column assay media only was added. Cell plates were placed in a humid chamber and incubated overnight at 37° C./5% CO2. After overnight incubation cells were checked for confluency and healthy appearance.
# Test compounds were prepared at a final concentration of 10 μM, in a maximum DMSO concentration of 1% (final assay concentration maximal 0.1% DMSO) and added to the cell plates in volumes of 10 μl. For cell control and virus control wells the test article solvent only was added. As a positive inhibition control, 7-Deaza-2′-C-methyladenosine was added at 100 μM in 3 wells. Virus (DENV-2 strain 16681) or assay media for cytotoxicity test wells and media/cell control wells was added immediately after test articles at an MOI of 0.5, 40 for 96 well plates respectively. Virus suspension was prepared by thawing DENV-2 frozen stocks and diluting to the required concentration of plaque forming units in assay media.
# as §1, with “5 days” for “72 h”, “20” for “20/40”, “96-well” for “384/96 well”, “temperature” for “temperature, protected from light on a plate rocker”, “5” for “20”, “(Envision, PerkinElmer).” for “(Biotek Synergy HTX).”
# DENV-2 inhibition was calculated as percentage of cytopathic effect inhibition relative to the virus control and cytotoxicity as percentage of cell survival relative to cell control wells.
SMILES,inhibition at 1 µM [1],EC50 (RSV A2),IC50 [1],inhibition at 10 µM (DENV-2 strain 16681)
"Cc1cc(OC(F)(F)F)ccc1Nc1ccc2cccc(Cl)c2n1 [Compound 1, 8-chloro-N-(2-methyl-4-(trifluoromethoxy)phenyl)quinolin-2-amine]",97%,3310 nM,,
"CCCc1cc(OC(F)(F)F)ccc1Nc1ccc2cccc(Cl)c2n1 [Compound 6, 8-chloro-N-(2-propyl-4-(trifluoromethoxy)phenyl)quinolin-2-amine]",100%,1210 nM,1 to 200 nM,
"Cc1ccc(Oc2ccc(Nc3ccc4ccccc4n3)cc2)cc1 [Compound 28, N-(4-(p-tolyloxy)phenyl)quinolin-2-amine]",,1780 nM,,
"Cc1cc(Oc2ccccc2F)ccc1Nc1ccc2ccccc2n1 [Compound 38, N-(4-(2-fluorophenoxy)-2-methylphenyl)quinolin-2-amine]",98%,200 nM,1 to 200 nM,
"Clc1cccc2ccc(Nc3ccc(OC4CCCC4)cc3C3CC3)nc12 [Compound 44, 8-chloro-N-(4-(cyclopentyloxy)-2-cyclopropylphenyl)quinolin-2-amine]",,,1 to 200 nM,94%
"Fc1ccccc1Oc1ccc(Nc2ccc3ccccc3n2)c(C2CC2)c1 [Compound 46, N-(2-cyclopropyl-4-(2-fluorophenoxy)phenyl)quinolin-2-amine]",,,1 to 200 nM,104%
"Cc1cc(OCc2ccccc2)ccc1Nc1ccc2cccc(Cl)c2n1 [Compound 47, N-(4-(benzyloxy)-2-methylphenyl)-8-chloroquinolin-2-amine]",,420 nM,,82%
"Cc1cc(OC(C)C)c(C2CC2)cc1Nc1ccc2cccc(Cl)c2n1 [Compound 48, 8-chloro-N-(5-cyclopropyl-4-isopropoxy-2-methylphenyl)quinolin-2-amine]",,360 nM,,
"Cc1c(Nc2ccc3cccc(Cl)c3n2)cccc1OC(C)C [Compound 49, 8-chloro-N-(3-isopropoxy-2-methylphenyl)quinolin-2-amine]",,513 nM,,
"Cc1c(Nc2ccc3cccc(Cl)c3n2)cccc1OCc1ccccc1 [Compound 50, N-(3-(benzyloxy)-2-methylphenyl)-8-chloroquinolin-2-amine]",,283 nM,,
"COc1ccc(Oc2ccc(Nc3ccc4ccccc4n3)c(C)c2)cc1 [Compound 51, N-(4-(4-methoxyphenoxy)-2-methylphenyl)quinolin-2-amine]",,412 nM,,
"COc1ccc(Oc2ccc(Nc3ccc4ccccc4n3)c(C3CC3)c2)c(F)c1 [Compound 52, N-(2-cyclopropyl-4-(2-fluoro-4-methoxyphenoxy)phenyl)quinolin-2-amine]",,344 nM,,
"Cc1cc(Oc2ccc(O)cc2F)ccc1Nc1ccc2ccccc2n1 [Compound 53, 3-fluoro-4-(3-methyl-4-(quinolin-2-ylamino)phenoxy)phenol]",,196 nM,,
"Cc1cc(Oc2cccc3ccccc23)ccc1Nc1ccc2cccc(Cl)c2n1 [Compound 54, 8-chloro-N-(2-methyl-4-(naphthalen-1-yloxy)phenyl)quinolin-2-amine]",,94 nM,,69%
"Cc1c(Nc2ccc3cccc(Cl)c3n2)cccc1Oc1ccccc1 [Compound 55, 8-chloro-N-(2-methyl-3-phenoxyphenyl)quinolin-2-amine]",,192 nM,,
"Cc1cc(Oc2ccccc2)ccc1Nc1ccc2cccc(Cl)c2n1 [Compound 56, 8-chloro-N-(2-methyl-4-phenoxyphenyl)quinolin-2-amine 2,2,2-trifluoroacetate]",,132 nM,,76%
"Cc1cc(Oc2ccc3ccccc3c2)ccc1Nc1ccc2cccc(Cl)c2n1 [Compound 57, 8-chloro-N-(2-methyl-4-(naphthalen-2-yloxy)phenyl)quinolin-2-amine]",,473 nM,,
